Reference: patent US20040209318A1, “Reagents and methods for the detection and quantification of vancomycin in bilogical fluids” (priority 1995, published 2004)

Target: anti-vancomycin Fab fragment
Assay: BIAcore solution competition, equilibrium dissociation constant
Assay type: binding, mouse
Settings: in solution, 20 nM Fab fragment; read-out: Equilibrium Dissociation Constant (KD)
Experimental: Biosensor surfaces were regenerated after each injection with successive 1 minute pulses of 6 M, 6M, and 1.5 M guanidine hydrochloride. Initial rates of binding of anti-vancomycin Fab fragment to the biosensor surface were measured over a 15 second window beginning 20 seconds postinjection. Data was evaluated by non-linear regression analysis using the solution affinity model built into BIAevaluation 3.0 software (BIAcore, Inc).
The binding affinities of several vancomycin analogs and tracers for anti-vancomycin Fab fragment were determined from solution competition experiments carried out on a BIAcore 2000. Initially, known concentrations of anti-vancomycin Fab fragment (0-22 nM) were injected over the aminoalkyl vancomycin biosensor surface. The initial rate of binding for each anti-vancomycin Fab fragment concentration was obtained by averaging the observed binding rate over a […] window beginning 20 seconds post injection. Data from the first 20 seconds of each sensorgram were omitted due to sample dispersion effects at the start of injections. A plot of initial binding rate versus concentration of anti-vancomycin Fab fragment was fit using a 4-parameter logistic (general model in BIAevaluation 3.0) providing a standard curve. […] A fixed concentration of anti-vancomycin Fab fragment (20 nM) was then mixed with twelve concentrations of each vancomycin analog or tracer and allowed to reach equilibrium. The equilibrium mixtures were individually injected over the aminoalkyl vancomycin biosensor surface, and the concentration of free anti-vancomycin Fab fragment remaining was quantitated by determination of the initial rate of binding to the biosensor surface as described above. A plot of free anti-vancomycin Fab fragment versus total concentration of added analog or tracer provides a competition curve. […] The data points represent the experimentally determined concentrations of free anti-vancomycin Fab fragment in equilibrium solutions at a given concentration of soluble analog or tracer. The curves represent the best nonlinear fit of the data using equation 1 (solution affinity model in BIAevaluation software) below: [formula]
where Fabτ is the concentration of free anti-vancomycin Fab fragment in equilibrium solutions, Fabτ is the total concentration of anti-vancomycin Fab fragment in solution (20 nM), A is the total concentration of added vancomycin analog or tracer, and KD is the equilibrium dissociation constant for the binding of the vancomycin analog or tracer to anti-vancomycin Fab fragment in solution.

Substance: Ring-2 dechlorovancomycin [compound 8]
- Kd: 87 ± 4 nM

Substance: N-acetylvancosaminylvancomycin [compound 7]
- Kd: ≤ 0.2 nM
